Reference: the supplement of paper PMC8882468

Test system: HCI-015 (organoid from a triple-negative breast cancer xenograft)
Assay: CTG-3D luminescence at 96 h relative to day-0 seeding control (ratio to day 0); higher = more growth / less cytotoxicity; PDxO 3D drug screen, 96 h, CTG-3D normalised to day-0 seeding control.
Conditions: 0.005 µM; days in culture: 218

SMILES | CTG-3D luminescence at 96 h
COc1cc2c(Oc3ccc4[nH]c(C)cc4c3F)ncnc2cc1OCCCN1CCCC1 [cediranib] | 1.55
CC(C)n1nc(-c2ccc3oc(N)nc3c2)c2c(N)ncnc21 [sapanisertib] | 1.59
Cc1cc(Nc2ncnc3ccc(NC4=NC(C)(C)CO4)cc23)ccc1Oc1ccn2ncnc2c1 [tucatinib] | 1.97
C[C@H](NC(=O)CCC(F)(F)F)C(=O)N[C@@H]1C(=O)N(CCO)c2ncccc2-c2ccccc21 [crenigacestat] | 0.952
C[C@]12CC[C@@H]3c4ccc(O)cc4C[C@@H](CCCCCCCCC[S+]([O-])CCCC(F)(F)C(F)(F)F)[C@H]3[C@@H]1CC[C@@H]2O (some centres not stated) [fulvestrant] | 2.13
O=C(c1ccc(F)c(F)c1Nc1ccc(I)cc1F)N1CC(O)([C@@H]2CCCCN2)C1 [cobimetinib] | 2.02
O=C(/C=C/c1cccnc1)NCCCCC1CCN(C(=O)c2ccccc2)CC1 [FK866] | 0.648
CS(=O)(=O)c1ccc(C(=O)Nc2ccc(Cl)c(-c3ccccn3)c2)c(Cl)c1 [vismodegib] | 1.63
C=CCn1c(=O)c2cnc(Nc3ccc(N4CCN(C)CC4)cc3)nc2n1-c1cccc(C(C)(C)O)n1 [adavosertib] | 1.56

Same assay, conditions: 0.1 µM; days in culture: 172

SMILES | CTG-3D luminescence at 96 h
COc1cc2c(Oc3ccc4[nH]c(C)cc4c3F)ncnc2cc1OCCCN1CCCC1 [cediranib] | 1.47
CC(C)n1nc(-c2ccc3oc(N)nc3c2)c2c(N)ncnc21 [sapanisertib] | 0.761
Cc1cc(Nc2ncnc3ccc(NC4=NC(C)(C)CO4)cc23)ccc1Oc1ccn2ncnc2c1 [tucatinib] | 1.54
C[C@H](NC(=O)CCC(F)(F)F)C(=O)N[C@@H]1C(=O)N(CCO)c2ncccc2-c2ccccc21 [crenigacestat] | 0.655
C[C@]12CC[C@@H]3c4ccc(O)cc4C[C@@H](CCCCCCCCC[S+]([O-])CCCC(F)(F)C(F)(F)F)[C@H]3[C@@H]1CC[C@@H]2O (some centres not stated) [fulvestrant] | 0.904
O=C(c1ccc(F)c(F)c1Nc1ccc(I)cc1F)N1CC(O)([C@@H]2CCCCN2)C1 [cobimetinib] | 1.86
O=C(/C=C/c1cccnc1)NCCCCC1CCN(C(=O)c2ccccc2)CC1 [FK866] | 0.206
CS(=O)(=O)c1ccc(C(=O)Nc2ccc(Cl)c(-c3ccccn3)c2)c(Cl)c1 [vismodegib] | 1.34
C=CCn1c(=O)c2cnc(Nc3ccc(N4CCN(C)CC4)cc3)nc2n1-c1cccc(C(C)(C)O)n1 [adavosertib] | 1.04

Same assay, conditions: 0.1 µM; days in culture: 191

SMILES | CTG-3D luminescence at 96 h
COc1cc2c(Oc3ccc4[nH]c(C)cc4c3F)ncnc2cc1OCCCN1CCCC1 [cediranib] | 1.16
CC(C)n1nc(-c2ccc3oc(N)nc3c2)c2c(N)ncnc21 [sapanisertib] | 0.411
Cc1cc(Nc2ncnc3ccc(NC4=NC(C)(C)CO4)cc23)ccc1Oc1ccn2ncnc2c1 [tucatinib] | 0.921
C[C@H](NC(=O)CCC(F)(F)F)C(=O)N[C@@H]1C(=O)N(CCO)c2ncccc2-c2ccccc21 [crenigacestat] | 0.48
C[C@]12CC[C@@H]3c4ccc(O)cc4C[C@@H](CCCCCCCCC[S+]([O-])CCCC(F)(F)C(F)(F)F)[C@H]3[C@@H]1CC[C@@H]2O (some centres not stated) [fulvestrant] | 1.06
O=C(c1ccc(F)c(F)c1Nc1ccc(I)cc1F)N1CC(O)([C@@H]2CCCCN2)C1 [cobimetinib] | 1.17
O=C(/C=C/c1cccnc1)NCCCCC1CCN(C(=O)c2ccccc2)CC1 [FK866] | 0.141
CS(=O)(=O)c1ccc(C(=O)Nc2ccc(Cl)c(-c3ccccn3)c2)c(Cl)c1 [vismodegib] | 1.1
C=CCn1c(=O)c2cnc(Nc3ccc(N4CCN(C)CC4)cc3)nc2n1-c1cccc(C(C)(C)O)n1 [adavosertib] | 0.981

Same assay, conditions: 0.1 µM; days in culture: 218

SMILES | CTG-3D luminescence at 96 h
COc1cc2c(Oc3ccc4[nH]c(C)cc4c3F)ncnc2cc1OCCCN1CCCC1 [cediranib] | 1.85
CC(C)n1nc(-c2ccc3oc(N)nc3c2)c2c(N)ncnc21 [sapanisertib] | 0.561
Cc1cc(Nc2ncnc3ccc(NC4=NC(C)(C)CO4)cc23)ccc1Oc1ccn2ncnc2c1 [tucatinib] | 1.85
C[C@H](NC(=O)CCC(F)(F)F)C(=O)N[C@@H]1C(=O)N(CCO)c2ncccc2-c2ccccc21 [crenigacestat] | 0.72
C[C@]12CC[C@@H]3c4ccc(O)cc4C[C@@H](CCCCCCCCC[S+]([O-])CCCC(F)(F)C(F)(F)F)[C@H]3[C@@H]1CC[C@@H]2O (some centres not stated) [fulvestrant] | 1.72
O=C(c1ccc(F)c(F)c1Nc1ccc(I)cc1F)N1CC(O)([C@@H]2CCCCN2)C1 [cobimetinib] | 1.47
O=C(/C=C/c1cccnc1)NCCCCC1CCN(C(=O)c2ccccc2)CC1 [FK866] | 0.169
CS(=O)(=O)c1ccc(C(=O)Nc2ccc(Cl)c(-c3ccccn3)c2)c(Cl)c1 [vismodegib] | 1.61
C=CCn1c(=O)c2cnc(Nc3ccc(N4CCN(C)CC4)cc3)nc2n1-c1cccc(C(C)(C)O)n1 [adavosertib] | 1.43

Same assay, conditions: 1 µM; days in culture: 172

SMILES | CTG-3D luminescence at 96 h
COc1cc2c(Oc3ccc4[nH]c(C)cc4c3F)ncnc2cc1OCCCN1CCCC1 [cediranib] | 2.43
CC(C)n1nc(-c2ccc3oc(N)nc3c2)c2c(N)ncnc21 [sapanisertib] | 0.765
Cc1cc(Nc2ncnc3ccc(NC4=NC(C)(C)CO4)cc23)ccc1Oc1ccn2ncnc2c1 [tucatinib] | 1.91
C[C@H](NC(=O)CCC(F)(F)F)C(=O)N[C@@H]1C(=O)N(CCO)c2ncccc2-c2ccccc21 [crenigacestat] | 0.872
C[C@]12CC[C@@H]3c4ccc(O)cc4C[C@@H](CCCCCCCCC[S+]([O-])CCCC(F)(F)C(F)(F)F)[C@H]3[C@@H]1CC[C@@H]2O (some centres not stated) [fulvestrant] | 2.25
O=C(c1ccc(F)c(F)c1Nc1ccc(I)cc1F)N1CC(O)([C@@H]2CCCCN2)C1 [cobimetinib] | 1.47
O=C(/C=C/c1cccnc1)NCCCCC1CCN(C(=O)c2ccccc2)CC1 [FK866] | 0.213
CS(=O)(=O)c1ccc(C(=O)Nc2ccc(Cl)c(-c3ccccn3)c2)c(Cl)c1 [vismodegib] | 1.97
C=CCn1c(=O)c2cnc(Nc3ccc(N4CCN(C)CC4)cc3)nc2n1-c1cccc(C(C)(C)O)n1 [adavosertib] | 1.39

Same assay, conditions: 1 µM; days in culture: 191

SMILES | CTG-3D luminescence at 96 h
COc1cc2c(Oc3ccc4[nH]c(C)cc4c3F)ncnc2cc1OCCCN1CCCC1 [cediranib] | 1.39
CC(C)n1nc(-c2ccc3oc(N)nc3c2)c2c(N)ncnc21 [sapanisertib] | 0.69
Cc1cc(Nc2ncnc3ccc(NC4=NC(C)(C)CO4)cc23)ccc1Oc1ccn2ncnc2c1 [tucatinib] | 1.58
C[C@H](NC(=O)CCC(F)(F)F)C(=O)N[C@@H]1C(=O)N(CCO)c2ncccc2-c2ccccc21 [crenigacestat] | 0.414
C[C@]12CC[C@@H]3c4ccc(O)cc4C[C@@H](CCCCCCCCC[S+]([O-])CCCC(F)(F)C(F)(F)F)[C@H]3[C@@H]1CC[C@@H]2O (some centres not stated) [fulvestrant] | 1.56
O=C(c1ccc(F)c(F)c1Nc1ccc(I)cc1F)N1CC(O)([C@@H]2CCCCN2)C1 [cobimetinib] | 1.01
O=C(/C=C/c1cccnc1)NCCCCC1CCN(C(=O)c2ccccc2)CC1 [FK866] | 0.243
CS(=O)(=O)c1ccc(C(=O)Nc2ccc(Cl)c(-c3ccccn3)c2)c(Cl)c1 [vismodegib] | 1.7
C=CCn1c(=O)c2cnc(Nc3ccc(N4CCN(C)CC4)cc3)nc2n1-c1cccc(C(C)(C)O)n1 [adavosertib] | 0.612

Same assay, conditions: 1 µM; days in culture: 218

SMILES | CTG-3D luminescence at 96 h
COc1cc2c(Oc3ccc4[nH]c(C)cc4c3F)ncnc2cc1OCCCN1CCCC1 [cediranib] | 1.49
CC(C)n1nc(-c2ccc3oc(N)nc3c2)c2c(N)ncnc21 [sapanisertib] | 0.547
Cc1cc(Nc2ncnc3ccc(NC4=NC(C)(C)CO4)cc23)ccc1Oc1ccn2ncnc2c1 [tucatinib] | 1.5
C[C@H](NC(=O)CCC(F)(F)F)C(=O)N[C@@H]1C(=O)N(CCO)c2ncccc2-c2ccccc21 [crenigacestat] | 0.7
C[C@]12CC[C@@H]3c4ccc(O)cc4C[C@@H](CCCCCCCCC[S+]([O-])CCCC(F)(F)C(F)(F)F)[C@H]3[C@@H]1CC[C@@H]2O (some centres not stated) [fulvestrant] | 1.77
O=C(c1ccc(F)c(F)c1Nc1ccc(I)cc1F)N1CC(O)([C@@H]2CCCCN2)C1 [cobimetinib] | 1.39
O=C(/C=C/c1cccnc1)NCCCCC1CCN(C(=O)c2ccccc2)CC1 [FK866] | 0.147
CS(=O)(=O)c1ccc(C(=O)Nc2ccc(Cl)c(-c3ccccn3)c2)c(Cl)c1 [vismodegib] | 1.73
C=CCn1c(=O)c2cnc(Nc3ccc(N4CCN(C)CC4)cc3)nc2n1-c1cccc(C(C)(C)O)n1 [adavosertib] | 0.699

Same assay, conditions: 10 µM; days in culture: 172

SMILES | CTG-3D luminescence at 96 h
COc1cc2c(Oc3ccc4[nH]c(C)cc4c3F)ncnc2cc1OCCCN1CCCC1 [cediranib] | 0.0376
CC(C)n1nc(-c2ccc3oc(N)nc3c2)c2c(N)ncnc21 [sapanisertib] | 0.544
Cc1cc(Nc2ncnc3ccc(NC4=NC(C)(C)CO4)cc23)ccc1Oc1ccn2ncnc2c1 [tucatinib] | 1.53
C[C@H](NC(=O)CCC(F)(F)F)C(=O)N[C@@H]1C(=O)N(CCO)c2ncccc2-c2ccccc21 [crenigacestat] | 1.02
C[C@]12CC[C@@H]3c4ccc(O)cc4C[C@@H](CCCCCCCCC[S+]([O-])CCCC(F)(F)C(F)(F)F)[C@H]3[C@@H]1CC[C@@H]2O (some centres not stated) [fulvestrant] | 1.34
O=C(c1ccc(F)c(F)c1Nc1ccc(I)cc1F)N1CC(O)([C@@H]2CCCCN2)C1 [cobimetinib] | 0.989
O=C(/C=C/c1cccnc1)NCCCCC1CCN(C(=O)c2ccccc2)CC1 [FK866] | 0.158
CS(=O)(=O)c1ccc(C(=O)Nc2ccc(Cl)c(-c3ccccn3)c2)c(Cl)c1 [vismodegib] | 1.25
C=CCn1c(=O)c2cnc(Nc3ccc(N4CCN(C)CC4)cc3)nc2n1-c1cccc(C(C)(C)O)n1 [adavosertib] | 0.498
